Target: T1, human CRTh2 (Homo sapiens, UniProt Q9Y5Y4)
T1 construct: expressed in transfected cells; host or cells: CHO.K1 (Chinese Hamster Ovary) cells, membrane preparation
T1 sequence (Q9Y5Y4 1-395): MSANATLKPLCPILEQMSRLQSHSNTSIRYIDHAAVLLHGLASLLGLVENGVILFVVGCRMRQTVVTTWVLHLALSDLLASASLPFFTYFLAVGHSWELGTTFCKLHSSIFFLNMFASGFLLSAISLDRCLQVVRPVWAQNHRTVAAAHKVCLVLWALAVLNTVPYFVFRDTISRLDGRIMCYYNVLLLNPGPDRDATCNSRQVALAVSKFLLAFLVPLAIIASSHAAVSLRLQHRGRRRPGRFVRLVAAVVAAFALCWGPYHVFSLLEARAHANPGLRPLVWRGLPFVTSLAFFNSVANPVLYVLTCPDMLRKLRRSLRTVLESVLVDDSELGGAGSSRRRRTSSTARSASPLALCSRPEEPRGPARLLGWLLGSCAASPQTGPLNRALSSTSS
Assay: CRTh2 [3H]-PGD2 binding assay (called SPA binding assay; filtration binding protocol described)
Settings: competition with [3H]-PGD2 (2.5 nM), CHO.K1-CRTh2 membranes
Method: The binding of CRTh2 modulators is determined using membranes prepared from human CRTh2-expressing Chinese Hamster Ovary cells (CHO.K1-CRTh2). To produce cell membranes CHO.K1-CRTh2 cells cultured in roller bottles are harvested using cell dissociation buffer (Invitrogen). The cells are pelleted by centrifugation (167 g, 5 min). The cell pellet is incubated in hypotonic buffer (15 mM Tris-OH, 2 mM MgCl2, 0.3 mM EDTA, 1 mM EGTA, 1× Complete™ tablet) at 4° C. for 30 min. At 4° C. cells are homogenized using a Polytron® (IKA Ultra Turrax T25) for 5 bursts of 1 second. The homogenate is centrifuged (Beckman Optima TM TL Ultracentrifuge, 48000 g, 30 min at 4° C.). […]
The binding of [^3H]-PGD2 (157 Ci/mmol) to CHO.K1-CRTh2 membranes is determined in the absence (total binding) and presence (non-specific binding) of unlabelled PGD2 (1 μM). […]
The plates are incubated at room temperature on a shaker for 1 hour, and then harvested (Tomtec Harvester 9600) onto GF/C filter plates using wash buffer (10 mM HEPES-KOH, pH 7.4). […] Plates are then counted using a Packard Top Count instrument, Plates are then read on the Packard Topcount with the 3H Scintillation program (1 min per well).
Ki (dissociation constant for the inhibition) values for the CRTh2 modulators are reported. Ki values are determined using Sigma Plot™ software, using the Cheng-Prussoff equation. […]

- Ki: 716 nM
Compound: Cc1c(CC(=O)O)c2cccnc2n1CCc1ccccc1 [Example 1, (2-Methyl-1-phenethyl-1H-pyrrolo[2,3-b]pyridine-3-yl)-acetic acid]
